The first experiment relates to C57BL/6J mice. Briefly: Oral glucose tolerance test. The experiment is classed as in vivo. As to conditions: male C57BL/6J mice, fasted overnight; oral gavage 10 mg/kg; solvent 0.5% MC; glucose 3 g/kg orally 30 minutes after compound; area under the curve of blood glucose level relative to control group. As to the method: Commercially available mice (C57BL/6J mice; male; 8 to 12 weeks old when used; distributed by Charles River Laboratories Japan, Inc.) were used.
After acclimatization with freely feeding (FR-2, Funabashi Farm Co., Ltd.) for one week or more, the mice were fasted overnight and then used for the test. A 0.5% methylcellulose (Wako Pure Chemical Industries, Ltd.) solution (0.5% MC) containing a test compound at a concentration of 1 mg/ml and a mixed solution (PG:Tween) of propylene glycol (80 v/v %, Nacalai Tesque, Inc.) and Tween 80 (20 v/v %, Nacalai Tesque, Inc.) containing a test compound at a concentration of 2 mg/ml were prepared for administration to the mice. The prepared solution was administered by oral gavage to four or five mice in each group at a dose of 10 mg/kg as the test compound. For a control group, a 0.5% methylcellulose solution (dose: 10 ml/kg) or a mixed solution of propylene glycol and Tween 80 (dose: 5 ml/kg) was orally administered to mice. An oral glucose tolerance test was carried out by administering a glucose solution (Otsuka Glucose Solution 50%; Otsuka Pharmaceutical Factory, Inc.) orally at a dose of 3 g/kg to the mice 30 minutes after administration of the test compound.
Blood was collected from the tail vein of each mouse immediately before administration of the test compound (T0), […] after administration of the test compound (T1), and 30 minutes (T2) and 90 minutes (T3) after oral glucose loading. The blood glucose level was measured using a blood glucose level measuring apparatus (ACCU-CHEK Aviva; Roche Diagnostics, K.K.). The blood glucose level T1 was analyzed as a value obtained 30 minutes after administration of the compound and immediately before glucose loading. According to the following formula, the area under the curve of blood glucose level was calculated, and thereafter, the blood glucose lowering rate (%) was calculated as a value relative to the control group. The area under the curve of blood glucose level=[(blood glucose level T0+blood glucose level T1)×30]÷2+[(blood glucose level T1+blood glucose level T2)×30]÷2+[(blood glucose level T2+blood glucose level T3)×60]÷2 Blood glucose lowering rate(%)=[1−(the area under the curve of blood glucose level for the test compound group/the area under the curve of blood glucose level for the control group)]×100
Turning to `C#Cc1ccc(-c2ccc(OC)c(C3C4=C(CC(C)(C)CC4=O)OC4=C3C(=O)CC(C)(C)C4)c2C)nc1C(=O)O` [Example 12, 3-Ethynyl-6-[4-methoxy-2-methyl-3-(3,3,6,6-tetramethyl-1,8-dioxo-2,3,4,5,6,7,8,9-octahydro-1H-xanthen-9-yl)phenyl]pyridine-2-carboxylic acid], the “Blood glucose lowering rate (%)” value is given as 31%.
With `CCc1ccc(-c2ccc(OC)c(C3C4=C(CC(C)(C)CC4=O)OC4=C3C(=O)CC(C)(C)C4)c2C)nc1C(=O)O` [Example 13, 3-Ethyl-6-[4-methoxy-2-methyl-3-(3,3,6,6-tetramethyl-1,8-dioxo-2,3,4,5,6,7,8,9-octahydro-1H-xanthen-9-yl)phenyl]pyridine-2-carboxylic acid], the “Blood glucose lowering rate (%)” value came out at 61%.
Take `COc1ccc(-c2cccc(C(=O)NS(C)(=O)=O)n2)c(C)c1C1C2=C(CC(C)(C)CC2=O)OC2=C1C(=O)CC(C)(C)C2.[K]` [Example 14, 6-[4-Methoxy-2-methyl-3-(3,3,6,6-tetramethyl-1,8-dioxo-2,3,4,5,6,7,8,9-octahydro-1H-xanthen-9-yl)phenyl]-N-(methylsulfonyl)pyridine-2-carboxamide potassium salt]: the “Blood glucose lowering rate (%)” value was 46%.
For `COc1ccc(-c2ccc(C)c(C(=O)NS(C)(=O)=O)n2)c(C)c1C1C2=C(CC(C)(C)CC2=O)OC2=C1C(=O)CC(C)(C)C2` [Example 16, 6-[4-Methoxy-2-methyl-3-(3,3,6,6-tetramethyl-1,8-dioxo-2,3,4,5,6,7,8,9-octahydro-1H-xanthen-9-yl)phenyl]-3-methyl-N-(methylsulfonyl)pyridine-2-carboxamide], the “Blood glucose lowering rate (%)” value came out at 45%.
On to `CCc1ccc(-c2ccc(OC)c(C3C4=C(CC(C)(C)CC4=O)OC4=C3C(=O)CC(C)(C)C4)c2C)nc1C(=O)NS(C)(=O)=O` [Example 17, 3-Ethyl-6-[4-methoxy-2-methyl-3-(3,3,6,6-tetramethyl-1,8-dioxo-2,3,4,5,6,7,8,9-octahydro-1H-xanthen-9-yl)phenyl]-N-(methylsulfonyl)pyridine-2-carboxamide], for which the “Blood glucose lowering rate (%)” value was 43%.
The same measure, in the same setting: in the case of `CC(C)(C)N.COc1ccc(-c2cccc(C(=O)NS(C)(=O)=O)n2)c(C)c1C1C2=C(CC(C)(C)CC2=O)OC2=C1C(=O)CC(C)(C)C2` [Example 18, 6-[4-methoxy-2-methyl-3-(3,3,6,6-tetramethyl-1,8-dioxo-2,3,4,5,6,7,8,9-octahydro-1H-xanthen-9-yl)phenyl]-N-(methylsulfonyl)pyridine-2-carboxamide 2-methylpropan-2-amine salt] it was 31%.
For the molecule `COc1ccc(-c2ccc(C)c(C(=O)NS(C)(=O)=O)n2)c(C)c1C1C2=C(CC(C)(C)CC2=O)OC2=C1C(=O)CC(C)(C)C2.[Na]` [Example 19, 6-[4-Methoxy-2-methyl-3-(3,3,6,6-tetramethyl-1,8-dioxo-2,3,4,5,6,7,8,9-octahydro-1H-xanthen-9-yl)phenyl]-3-methyl-N-(methylsulfonyl)pyridine-2-carboxamide sodium salt], the “Blood glucose lowering rate (%)” value stood at 40%.
With `COc1ccc(-c2cccc(C(=O)NS(C)(=O)=O)n2)c(C)c1C1C2=C(CC(C)(C)CC2=O)OC2=C1C(=O)CC(C)(C)C2.COc1ccc(-c2cccc(C(=O)NS(C)(=O)=O)n2)c(C)c1C1C2=C(CC(C)(C)CC2=O)OC2=C1C(=O)CC(C)(C)C2.[Ca]` [Example 20, 6-[4-Methoxy-2-methyl-3-(3,3,6,6-tetramethyl-1,8-dioxo-2,3,4,5,6,7,8,9-octahydro-1H-xanthen-9-yl)phenyl]-N-(methylsulfonyl)pyridine-2-carboxamide hemi-calcium salt], the “Blood glucose lowering rate (%)” value is on record as 41%.
As for `COc1ccc(-c2ccc(C)c(C(=O)NS(C)(=O)=O)n2)c(C)c1C1C2=C(CC(C)(C)CC2=O)OC2=C1C(=O)CC(C)(C)C2.COc1ccc(-c2ccc(C)c(C(=O)NS(C)(=O)=O)n2)c(C)c1C1C2=C(CC(C)(C)CC2=O)OC2=C1C(=O)CC(C)(C)C2.[Ca]` [Example 21, 6-[4-Methoxy-2-methyl-3-(3,3,6,6-tetramethyl-1,8-dioxo-2,3,4,5,6,7,8,9-octahydro-1H-xanthen-9-yl)phenyl]-3-methyl-N-(methylsulfonyl)pyridine-2-carboxamide hemi-calcium salt], the “Blood glucose lowering rate (%)” value worked out at 54%.

Still in this experiment, the particulars now being: male C57BL/6J mice, fasted overnight; oral gavage 10 mg/kg; solvent PG:Tween; glucose 3 g/kg orally 30 minutes after compound; area under the curve of blood glucose level relative to control group.
In the case of `COc1ccc(-c2cccc(C(=O)O)n2)cc1C1C2=C(CC(C)(C)CC2=O)OC2=C1C(=O)CC(C)(C)C2` [Example 1, 6-[4-Methoxy-3-(3,3,6,6-tetramethyl-1,8-dioxo-2,3,4,5,6,7,8,9-octahydro-1H-xanthen-9-yl)phenyl]pyridine-2-carboxylic acid], the “Blood glucose lowering rate (%)” value is given as 39%.
As for `COc1ccc(-c2cccc(C(=O)O)n2)c(C)c1C1C2=C(CC(C)(C)CC2=O)OC2=C1C(=O)CC(C)(C)C2` [Example 4, 6-[4-Methoxy-2-methyl-3-(3,3,6,6-tetramethyl-1,8-dioxo-2,3,4,5,6,7,8,9-octahydro-1H-xanthen-9-yl)phenyl]pyridine-2-carboxylic acid], the “Blood glucose lowering rate (%)” value is recorded as 60%.
As for `COc1ccc(-c2cccc(C(=O)NS(C)(=O)=O)n2)cc1C1C2=C(CC(C)(C)CC2=O)OC2=C1C(=O)CC(C)(C)C2` [Example 5, 6-[4-Methoxy-3-(3,3,6,6-tetramethyl-1,8-dioxo-2,3,4,5,6,7,8,9-octahydro-1H-xanthen-9-yl)phenyl]-N-(methylsulfonyl)pyridine-2-carboxamide], the “Blood glucose lowering rate (%)” value is listed as 43%.
With `COc1ccc(-c2cccc(-c3noc(=O)[nH]3)n2)cc1C1C2=C(CC(C)(C)CC2=O)OC2=C1C(=O)CC(C)(C)C2` [Example 8, 9-{2-Methoxy-5-[6-(5-oxo-4,5-dihydro-1,2,4-oxadiazol-3-yl)pyridin-2-yl]phenyl}-3,3,6,6-tetramethyl-3,4,5,6,7,9-hexahydro-1H-xanthene-1,8(2H)-dione], the “Blood glucose lowering rate (%)” value is recorded as 38%.
In the case of `COc1ccc(-c2cccc(C(=O)NS(C)(=O)=O)n2)c(C)c1C1C2=C(CC(C)(C)CC2=O)OC2=C1C(=O)CC(C)(C)C2` [Example 9, 6-[4-Methoxy-2-methyl-3-(3,3,6,6-tetramethyl-1,8-dioxo-2,3,4,5,6,7,8,9-octahydro-1H-xanthen-9-yl)phenyl]-N-(methylsulfonyl)pyridine-2-carboxamide], the “Blood glucose lowering rate (%)” value is listed as 42%.
Consider `COc1ccc(-c2ccc(C)c(C(=O)O)n2)c(C)c1C1C2=C(CC(C)(C)CC2=O)OC2=C1C(=O)CC(C)(C)C2` [Example 10, 6-[4-Methoxy-2-methyl-3-(3,3,6,6-tetramethyl-1,8-dioxo-2,3,4,5,6,7,8,9-octahydro-1H-xanthen-9-yl)phenyl]-3-methylpyridine-2-carboxylic acid], for which the “Blood glucose lowering rate (%)” value was determined as 55%.
Consider `COc1ccc(-c2ccc(O)c(C(=O)O)n2)c(C)c1C1C2=C(CC(C)(C)CC2=O)OC2=C1C(=O)CC(C)(C)C2` [Example 11, 3-Hydroxy-6-[4-methoxy-2-methyl-3-(3,3,6,6-tetramethyl-1,8-dioxo-2,3,4,5,6,7,8,9-octahydro-1H-xanthen-9-yl)phenyl]pyridine-2-carboxylic acid], for which the “Blood glucose lowering rate (%)” value stood at 42%.
In the case of `COc1ccc(-c2ccc(OC)c(C3C4=C(CC(C)(C)CC4=O)OC4=C3C(=O)CC(C)(C)C4)c2C)nc1C(=O)O` [Example 23, 3-Methoxy-6-[4-methoxy-2-methyl-3-(3,3,6,6-tetramethyl-1,8-dioxo-2,3,4,5,6,7,8,9-octahydro-1H-xanthen-9-yl)phenyl]pyridine-2-carboxylic acid], the “Blood glucose lowering rate (%)” value is given as 46%.

The values above are taken from patent US8975263B2, “Phenylxanthene derivatives” (Daiichi Sankyo Company, Limited, priority 2013, dated 2015).
